According to article PMC3887211, “Automethylation Activities within the Mixed Lineage Leukemia-1 (MLL1) Core Complex Reveal Evidence Supporting a “Two-active Site” Model for Multiple Histone H3 Lysine 4 Methylation” (The Journal of Biological Chemistry, 2013):

Columns and labels:
MBP-Trithorax SET domain = target: T1, MBP-Trithorax SET domain (Drosophila melanogaster, UniProt P20659); test: [3H]methyl transfer (automethylation and H3 methylation), SDS-PAGE fluorography; assay type: biochemical; conditions: labelled compound; with or without histone H3 peptide (1-20); pH 8.5, 15 °C
T1 construct: gene trx; SET domain as MBP fusion from E. coli
T1 sequence (P20659 3588-3726 limits assumed): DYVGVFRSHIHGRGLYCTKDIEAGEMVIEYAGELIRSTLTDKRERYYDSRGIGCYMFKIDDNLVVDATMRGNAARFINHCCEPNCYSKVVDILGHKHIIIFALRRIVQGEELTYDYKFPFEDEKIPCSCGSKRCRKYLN

WRAD = target: T2, WRAD (Homo sapiens, UniProt Q15291+Q9UBL3); conditions: labelled compound, no MLL1
T2 construct: gene ASH2L
T2 sequence (Q9C005 whole entry): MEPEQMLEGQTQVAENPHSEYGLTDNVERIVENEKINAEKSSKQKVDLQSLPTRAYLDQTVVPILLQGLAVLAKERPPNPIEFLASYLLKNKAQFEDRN
T2 sequence (Q15291 whole entry): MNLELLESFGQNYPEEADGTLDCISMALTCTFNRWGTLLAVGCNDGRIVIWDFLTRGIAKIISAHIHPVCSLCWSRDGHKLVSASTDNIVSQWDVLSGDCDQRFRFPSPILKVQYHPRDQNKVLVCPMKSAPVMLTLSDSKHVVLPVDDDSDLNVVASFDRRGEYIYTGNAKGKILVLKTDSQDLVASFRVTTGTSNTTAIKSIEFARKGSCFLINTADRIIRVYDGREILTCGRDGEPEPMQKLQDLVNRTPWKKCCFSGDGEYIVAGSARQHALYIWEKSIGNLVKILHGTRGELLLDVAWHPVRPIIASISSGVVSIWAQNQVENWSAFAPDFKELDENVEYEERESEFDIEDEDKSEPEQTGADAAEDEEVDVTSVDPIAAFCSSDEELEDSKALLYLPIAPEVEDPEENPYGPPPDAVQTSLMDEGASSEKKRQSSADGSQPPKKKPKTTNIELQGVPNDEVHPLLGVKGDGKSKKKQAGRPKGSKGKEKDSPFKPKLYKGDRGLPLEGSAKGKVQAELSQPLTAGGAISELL
T2 sequence (Q9UBL3 whole entry): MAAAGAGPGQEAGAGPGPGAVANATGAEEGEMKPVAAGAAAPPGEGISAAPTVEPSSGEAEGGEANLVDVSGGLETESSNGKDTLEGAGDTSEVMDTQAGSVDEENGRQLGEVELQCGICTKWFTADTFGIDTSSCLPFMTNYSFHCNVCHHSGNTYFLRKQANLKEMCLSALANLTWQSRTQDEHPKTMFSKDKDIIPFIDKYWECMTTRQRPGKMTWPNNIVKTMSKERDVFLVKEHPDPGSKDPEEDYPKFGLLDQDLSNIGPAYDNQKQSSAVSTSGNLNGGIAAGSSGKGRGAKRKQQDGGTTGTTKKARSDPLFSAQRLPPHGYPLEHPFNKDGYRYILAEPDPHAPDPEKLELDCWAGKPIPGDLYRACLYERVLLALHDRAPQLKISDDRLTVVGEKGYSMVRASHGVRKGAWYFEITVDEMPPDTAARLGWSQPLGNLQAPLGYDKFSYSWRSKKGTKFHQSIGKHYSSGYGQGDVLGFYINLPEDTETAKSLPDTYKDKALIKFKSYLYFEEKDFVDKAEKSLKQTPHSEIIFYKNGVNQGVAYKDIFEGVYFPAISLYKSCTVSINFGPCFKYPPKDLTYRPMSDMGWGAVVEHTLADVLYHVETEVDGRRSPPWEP

[1] = target: T3, MLL1 core complex (MWRAD) (Homo sapiens, UniProt Q03164); conditions: labelled compound; no histone H3; pH 8.5, 15 °C; intra-complex methylation of Ash2L by MLL1 SET domain
T3 construct: gene KMT2A
T3 sequence (Q9C005 whole entry, the tested form may be a part): as the sequence (Q9C005 whole entry) above
T3 sequence (Q9UBL3 whole entry, further chain, the tested form may be a part): as the sequence (Q9UBL3 whole entry) above
T3 sequence (Q03164 3745-3969): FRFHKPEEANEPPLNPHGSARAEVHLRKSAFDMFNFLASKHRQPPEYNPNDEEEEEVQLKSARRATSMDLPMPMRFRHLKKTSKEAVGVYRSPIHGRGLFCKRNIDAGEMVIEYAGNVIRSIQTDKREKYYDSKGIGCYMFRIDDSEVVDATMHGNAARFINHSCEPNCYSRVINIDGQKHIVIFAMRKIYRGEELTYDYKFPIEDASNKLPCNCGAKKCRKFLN
T3 sequence (Q15291 whole entry, further chain, the tested form may be a part): as the sequence (Q15291 whole entry) above

[2] = target: T4, MLL1 SET domain (MLL^3745) (Homo sapiens, UniProt Q03164); test: [3H]methyl transfer to H3 peptide, streptavidin pull-down, liquid scintillation counting; assay type: biochemical; conditions: histone H3 peptide (1-20)-GGK-biotin 500 μM fixed; 7 μM MLL1; 0-100 μM labelled compound; assay buffer pH 8.5, 15 °C; construct of MLL1 not stated for this assay; read-out: apparent Km
T4 construct: gene KMT2A; C-terminal Win motif + SET domain, residues 3745-3969, 26 kDa, expressed in E. coli as GST fusion
T4 sequence (Q03164 3745-3969): as the sequence (Q03164 3745-3969) above

C[S+](CC[C@H](N)C(=O)O)C[C@H]1O[C@@H](n2cnc3c(N)ncnc32)[C@H](O)[C@@H]1O (stereo partly shown) [AdoMet]
[3H]methyl transfer (automethylation and H3 methylation), SDS-PAGE fluorography (MBP-Trithorax SET domain): MBP-Trithorax SET domain is enzymatically active and undergoes automethylation in the absence of histone H3 | [3H]methyl transfer to histone H3 peptide, SDS-PAGE fluorography (WRAD): despite significant histone H3 methylation by WRAD, no Ash2L methylation was observed | [3H]methyl transfer to Ash2L, SDS-PAGE fluorography [1]: Ash2L methylation is dependent on the catalytic activity of the MLL1 SET domain | Km [2]: 10.4 ± 3.1 µM
